Results as given in ChEMBL document CHEMBL3045539, “Synthesis, DNA affinity, and antimicrobial activity of 4-substituted phenyl-2,2-bichalcophenes and aza-analogues” (Med Chem Res, 2012).
≈ marks a conversion by molar mass, not a printed value. Calls of active or inactive are those of the source. The rule behind the calls is not given here.

Test system: Bacillus subtilis
Experiment: Antimicrobial activity against Bacillus subtilis after 24 hr by CLSI liquid dilution method
Format: functional
Details: not given

Row | MIC [µg/mL] | SMILES
1 | 15 (≈ 52.6 µM) | N=C(N)c1ccc(-c2ccc(-c3cccs3)s2)nc1 [6-(2,2'-BITHIOPHENE-5-YL)NICOTINAMIDINE]
2 | 15 (≈ 55.7 µM) | N=C(N)c1ccc(-c2ccc(-c3cccs3)o2)nc1 [6-[5-(THIOPHEN-2-YL)FURAN-2-YL]NICOTINAMIDINE]
3 | 15 (≈ 59.5 µM) | N#Cc1ccc(-c2ccc(-c3cccs3)o2)nc1 [6-[5-(THIOPHEN-2-YL)FURAN-2-YL]NICOTINONITRILE]

Row | SMILES | MIC [µg/mL]
4 | CC1(C)S[C@@H]2[C@H](NC(=O)[C@H](N)c3ccccc3)C(=O)N2[C@H]1C(=O)O [AMPICILLIN] | 15 (≈ 42.9 µM)

Test system: not listed separately
Experiment: Antioxidant activity assessed as DPPH scavenging activity at 50 ug after 30 min by spectrophotometry
Format: functional
Details: not given

Row | SMILES | Activity [%]
5 | N=C(N)c1ccc(-c2ccc(-c3cccs3)s2)nc1 [6-(2,2'-BITHIOPHENE-5-YL)NICOTINAMIDINE] | 58.2

Test system: Escherichia coli
Experiment: Induction of Escherichia coli AB1157 DNA degradation after 1 hr by agarose gel electrophoresis
Details: not given

Row | Activity | SMILES
6 | Active | N=C(N)c1ccc(-c2ccc(-c3cccs3)s2)nc1 [6-(2,2'-BITHIOPHENE-5-YL)NICOTINAMIDINE]
7 | Active | N=C(N)c1ccc(-c2ccc(-c3cccs3)o2)nc1 [6-[5-(THIOPHEN-2-YL)FURAN-2-YL]NICOTINAMIDINE]
8 | Active | N#Cc1ccc(-c2ccc(-c3cccs3)o2)nc1 [6-[5-(THIOPHEN-2-YL)FURAN-2-YL]NICOTINONITRILE]

Test system: Staphylococcus aureus
Experiment: Antimicrobial activity against Staphylococcus aureus after 24 hr by CLSI liquid dilution method
Format: functional
Details: not given

Row | MIC [µg/mL] | SMILES
9 | 15 (≈ 52.6 µM) | N=C(N)c1ccc(-c2ccc(-c3cccs3)s2)nc1 [6-(2,2'-BITHIOPHENE-5-YL)NICOTINAMIDINE]
10 | 10 (≈ 37.1 µM) | N=C(N)c1ccc(-c2ccc(-c3cccs3)o2)nc1 [6-[5-(THIOPHEN-2-YL)FURAN-2-YL]NICOTINAMIDINE]
11 | 15 (≈ 59.5 µM) | N#Cc1ccc(-c2ccc(-c3cccs3)o2)nc1 [6-[5-(THIOPHEN-2-YL)FURAN-2-YL]NICOTINONITRILE]

Row | SMILES | MIC [µg/mL]
12 | CC1(C)S[C@@H]2[C@H](NC(=O)[C@H](N)c3ccccc3)C(=O)N2[C@H]1C(=O)O [AMPICILLIN] | 10 (≈ 28.6 µM)

Test system: Bacillus subtilis
Experiment: Antimicrobial activity against Bacillus subtilis at 100 ug after 24 hr by cup diffusion technique
Format: functional
Details: read-out: DIZ

Row | SMILES | zone of inhibition at 100 µg/disc [mm]
13 | N=C(N)c1ccc(-c2ccc(-c3cccs3)s2)nc1 [6-(2,2'-BITHIOPHENE-5-YL)NICOTINAMIDINE] | 7
14 | N=C(N)c1ccc(-c2ccc(-c3cccs3)o2)nc1 [6-[5-(THIOPHEN-2-YL)FURAN-2-YL]NICOTINAMIDINE] | 5
15 | N#Cc1ccc(-c2ccc(-c3cccs3)o2)nc1 [6-[5-(THIOPHEN-2-YL)FURAN-2-YL]NICOTINONITRILE] | 13
16 | CC1(C)S[C@@H]2[C@H](NC(=O)[C@H](N)c3ccccc3)C(=O)N2[C@H]1C(=O)O [AMPICILLIN] | 18

Test system: Escherichia coli
Experiment: Antimicrobial activity against Escherichia coli at 100 ug after 24 hr by cup diffusion technique
Format: functional
Details: read-out: DIZ

Row | SMILES | zone of inhibition at 100 µg/disc [mm]
17 | N=C(N)c1ccc(-c2ccc(-c3cccs3)s2)nc1 [6-(2,2'-BITHIOPHENE-5-YL)NICOTINAMIDINE] | 10
18 | N=C(N)c1ccc(-c2ccc(-c3cccs3)o2)nc1 [6-[5-(THIOPHEN-2-YL)FURAN-2-YL]NICOTINAMIDINE] | 8
19 | N#Cc1ccc(-c2ccc(-c3cccs3)o2)nc1 [6-[5-(THIOPHEN-2-YL)FURAN-2-YL]NICOTINONITRILE] | 14
20 | CC1(C)S[C@@H]2[C@H](NC(=O)[C@H](N)c3ccccc3)C(=O)N2[C@H]1C(=O)O [AMPICILLIN] | 16

Biological target: Albumin (Bos taurus, UniProt P02769)
Experiment: Induction of Bos taurus (bovine) serum albumin degradation after 1 hr by SDS-PAGE analysis
Details: cattle

Chain of Albumin (P02769 whole entry): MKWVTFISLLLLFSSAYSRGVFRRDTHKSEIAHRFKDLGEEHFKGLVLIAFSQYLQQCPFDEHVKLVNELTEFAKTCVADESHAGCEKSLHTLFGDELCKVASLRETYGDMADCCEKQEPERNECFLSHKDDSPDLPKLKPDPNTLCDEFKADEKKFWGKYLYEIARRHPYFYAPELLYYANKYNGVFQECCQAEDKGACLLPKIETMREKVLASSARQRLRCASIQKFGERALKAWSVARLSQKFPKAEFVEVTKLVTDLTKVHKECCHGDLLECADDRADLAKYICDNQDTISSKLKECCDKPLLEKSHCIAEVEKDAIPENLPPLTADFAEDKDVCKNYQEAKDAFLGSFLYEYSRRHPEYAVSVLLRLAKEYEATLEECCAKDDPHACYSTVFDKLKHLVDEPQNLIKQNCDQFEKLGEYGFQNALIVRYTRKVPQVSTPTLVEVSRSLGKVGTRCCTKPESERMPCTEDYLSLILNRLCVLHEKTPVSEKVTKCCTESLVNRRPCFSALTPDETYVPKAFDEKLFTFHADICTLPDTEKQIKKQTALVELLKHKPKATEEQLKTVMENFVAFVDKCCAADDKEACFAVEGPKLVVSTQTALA

Row | Activity | SMILES
21 | Active | N=C(N)c1ccc(-c2ccc(-c3cccs3)s2)nc1 [6-(2,2'-BITHIOPHENE-5-YL)NICOTINAMIDINE]
22 | Active | N=C(N)c1ccc(-c2ccc(-c3cccs3)o2)nc1 [6-[5-(THIOPHEN-2-YL)FURAN-2-YL]NICOTINAMIDINE]
23 | Active | N#Cc1ccc(-c2ccc(-c3cccs3)o2)nc1 [6-[5-(THIOPHEN-2-YL)FURAN-2-YL]NICOTINONITRILE]

Test system: Escherichia coli
Experiment: Antimicrobial activity against Escherichia coli after 24 hr by CLSI liquid dilution method
Format: functional
Details: not given

Row | MIC [µg/mL] | SMILES
24 | 10 (≈ 35 µM) | N=C(N)c1ccc(-c2ccc(-c3cccs3)s2)nc1 [6-(2,2'-BITHIOPHENE-5-YL)NICOTINAMIDINE]
25 | 15 (≈ 55.7 µM) | N=C(N)c1ccc(-c2ccc(-c3cccs3)o2)nc1 [6-[5-(THIOPHEN-2-YL)FURAN-2-YL]NICOTINAMIDINE]
26 | 10 (≈ 39.6 µM) | N#Cc1ccc(-c2ccc(-c3cccs3)o2)nc1 [6-[5-(THIOPHEN-2-YL)FURAN-2-YL]NICOTINONITRILE]

Row | SMILES | MIC [µg/mL]
27 | CC1(C)S[C@@H]2[C@H](NC(=O)[C@H](N)c3ccccc3)C(=O)N2[C@H]1C(=O)O [AMPICILLIN] | 10 (≈ 28.6 µM)

Test system: Saccharomyces cerevisiae
Experiment: Antimicrobial activity against Saccharomyces cerevisiae after 24 hr by CLSI liquid dilution method
Format: functional
Details: not given

Row | MIC [µg/mL] | SMILES
28 | 5 (≈ 17.5 µM) | N=C(N)c1ccc(-c2ccc(-c3cccs3)s2)nc1 [6-(2,2'-BITHIOPHENE-5-YL)NICOTINAMIDINE]
29 | 15 (≈ 55.7 µM) | N=C(N)c1ccc(-c2ccc(-c3cccs3)o2)nc1 [6-[5-(THIOPHEN-2-YL)FURAN-2-YL]NICOTINAMIDINE]
30 | 10 (≈ 39.6 µM) | N#Cc1ccc(-c2ccc(-c3cccs3)o2)nc1 [6-[5-(THIOPHEN-2-YL)FURAN-2-YL]NICOTINONITRILE]

Row | SMILES | MIC [µg/mL]
31 | CC1(C)S[C@@H]2[C@H](NC(=O)[C@H](N)c3ccccc3)C(=O)N2[C@H]1C(=O)O [AMPICILLIN] | 7.5 (≈ 21.5 µM)

Test system: Pseudomonas aeruginosa
Experiment: Antimicrobial activity against Pseudomonas aeruginosa after 24 hr by cup diffusion technique
Format: functional
Details: not given

Row | SMILES | diameter of the inhibition zone (DIZ) [mm]
32 | N=C(N)c1ccc(-c2ccc(-c3cccs3)s2)nc1 [6-(2,2'-BITHIOPHENE-5-YL)NICOTINAMIDINE] | 9
33 | N=C(N)c1ccc(-c2ccc(-c3cccs3)o2)nc1 [6-[5-(THIOPHEN-2-YL)FURAN-2-YL]NICOTINAMIDINE] | 7
34 | N#Cc1ccc(-c2ccc(-c3cccs3)o2)nc1 [6-[5-(THIOPHEN-2-YL)FURAN-2-YL]NICOTINONITRILE] | 16
35 | CC1(C)S[C@@H]2[C@H](NC(=O)[C@H](N)c3ccccc3)C(=O)N2[C@H]1C(=O)O [AMPICILLIN] | 12

Test system: Staphylococcus aureus
Experiment: Antimicrobial activity against Staphylococcus aureus at 100 ug after 24 hr by cup diffusion technique
Format: functional
Details: read-out: DIZ

Row | SMILES | zone of inhibition at 100 µg/disc [mm]
36 | N=C(N)c1ccc(-c2ccc(-c3cccs3)s2)nc1 [6-(2,2'-BITHIOPHENE-5-YL)NICOTINAMIDINE] | 10
37 | N=C(N)c1ccc(-c2ccc(-c3cccs3)o2)nc1 [6-[5-(THIOPHEN-2-YL)FURAN-2-YL]NICOTINAMIDINE] | 11
38 | N#Cc1ccc(-c2ccc(-c3cccs3)o2)nc1 [6-[5-(THIOPHEN-2-YL)FURAN-2-YL]NICOTINONITRILE] | 12
39 | CC1(C)S[C@@H]2[C@H](NC(=O)[C@H](N)c3ccccc3)C(=O)N2[C@H]1C(=O)O [AMPICILLIN] | 12

Test system: not listed separately
Experiment: Antioxidant activity assessed as SOD-like activity measuring inhibition of superoxide radical production at 50 ug after 30 min by NBT reduction assay
Format: functional
Details: not given

Row | SMILES | inhibition [%]
40 | N=C(N)c1ccc(-c2ccc(-c3cccs3)s2)nc1 [6-(2,2'-BITHIOPHENE-5-YL)NICOTINAMIDINE] | 51.4
41 | N=C(N)c1ccc(-c2ccc(-c3cccs3)o2)nc1 [6-[5-(THIOPHEN-2-YL)FURAN-2-YL]NICOTINAMIDINE] | 44.2
42 | N#Cc1ccc(-c2ccc(-c3cccs3)o2)nc1 [6-[5-(THIOPHEN-2-YL)FURAN-2-YL]NICOTINONITRILE] | 40.3

Test system: Saccharomyces cerevisiae
Experiment: Antimicrobial activity against Saccharomyces cerevisiae at 100 ug after 24 hr by cup diffusion technique
Format: functional
Details: read-out: DIZ

Row | SMILES | zone of inhibition at 100 µg/disc [mm]
43 | N=C(N)c1ccc(-c2ccc(-c3cccs3)s2)nc1 [6-(2,2'-BITHIOPHENE-5-YL)NICOTINAMIDINE] | 14
44 | N=C(N)c1ccc(-c2ccc(-c3cccs3)o2)nc1 [6-[5-(THIOPHEN-2-YL)FURAN-2-YL]NICOTINAMIDINE] | 10
45 | N#Cc1ccc(-c2ccc(-c3cccs3)o2)nc1 [6-[5-(THIOPHEN-2-YL)FURAN-2-YL]NICOTINONITRILE] | 16
46 | CC1(C)S[C@@H]2[C@H](NC(=O)[C@H](N)c3ccccc3)C(=O)N2[C@H]1C(=O)O [AMPICILLIN] | 17

Test system: Pseudomonas aeruginosa
Experiment: Antimicrobial activity against Pseudomonas aeruginosa after 24 hr by CLSI liquid dilution method
Format: functional
Details: not given

Row | MIC [µg/mL] | SMILES
47 | 15 (≈ 52.6 µM) | N=C(N)c1ccc(-c2ccc(-c3cccs3)s2)nc1 [6-(2,2'-BITHIOPHENE-5-YL)NICOTINAMIDINE]
48 | 20 (≈ 74.3 µM) | N=C(N)c1ccc(-c2ccc(-c3cccs3)o2)nc1 [6-[5-(THIOPHEN-2-YL)FURAN-2-YL]NICOTINAMIDINE]
49 | 10 (≈ 39.6 µM) | N#Cc1ccc(-c2ccc(-c3cccs3)o2)nc1 [6-[5-(THIOPHEN-2-YL)FURAN-2-YL]NICOTINONITRILE]

Row | SMILES | MIC [µg/mL]
50 | CC1(C)S[C@@H]2[C@H](NC(=O)[C@H](N)c3ccccc3)C(=O)N2[C@H]1C(=O)O [AMPICILLIN] | 15 (≈ 42.9 µM)
